From patent publication US20180250351A1 (priority 2015, published 2018)
Like-named read-outs stand apart in the source and are kept apart here. Each block holds one compound with its values, some of them ahead of it.

Experiments:
[1] = animals; cited from earlier work
[2] = humans; absolute terms, curcumin alone at the non detectable level; cited from earlier work
[3] = human, in vivo
[4] = curcumin dose 100 mg/kg (NPs) or 250 mg/kg (others); cited from earlier work
[5] = biological target: T1, UDP-glucose dehydrogenase (UDP-GDH) (Homo sapiens, UniProt O60701); experiment: Spectrophotometric test of inhibition of UDP-glucose dehydrogenase; format: biochemical; details: for type of inhibition of UDP-GDH: in relation to enzyme/substrate and cofactor NAD+; for IC50: 37° C., 340 nm
T1 sequence (O60701 1-494): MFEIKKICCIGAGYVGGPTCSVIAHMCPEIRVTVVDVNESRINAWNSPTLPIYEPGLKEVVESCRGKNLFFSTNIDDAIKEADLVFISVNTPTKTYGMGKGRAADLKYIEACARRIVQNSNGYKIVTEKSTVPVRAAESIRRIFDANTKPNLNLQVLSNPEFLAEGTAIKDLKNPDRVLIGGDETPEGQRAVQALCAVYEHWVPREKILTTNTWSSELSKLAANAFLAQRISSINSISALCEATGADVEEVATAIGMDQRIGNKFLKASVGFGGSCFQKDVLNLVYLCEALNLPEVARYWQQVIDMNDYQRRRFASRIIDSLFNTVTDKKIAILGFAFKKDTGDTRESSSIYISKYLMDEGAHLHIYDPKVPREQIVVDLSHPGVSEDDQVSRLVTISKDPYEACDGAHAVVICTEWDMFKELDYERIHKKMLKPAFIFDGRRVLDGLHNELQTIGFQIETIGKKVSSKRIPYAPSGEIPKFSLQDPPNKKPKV
Protocol: The UDP-GDH enzyme catalyses the oxidation of the UDP-glucose using the NAD+ as the oxidant agent, according to the following formula: […]
UDP-glucose+2NAD++H2O→UDP-glucuronic acid+2NADH+2H+
For the spectrophotometric evaluation of the enzymatic activity the following reactive mix has been used:
The test has been done at 37° C. and monitored at 340 nm for 20 minutes.
The algae has thus been suspended in different concentrations (10-50-100 mg/ml) in distilled water on the one hand and in 100% ethanol on the other; then homogenized and afterwards centrifuged at 5000 rpm for 10 minutes. We have then checked through spectrophotometry the presence in the two extracts of the relevant components, verifying the presence of phycocyanins at 620 nm for the water extract and of carotenoids at 400 nm and chlorophyll at 664 nm for the ethanol extract.

Compound: O=C(/C=C/C=C/c1ccc2c(c1)OCO2)N1CCCCC1 [Piperine, piperine]
plasma concentration increase of curcumin [1]: 154%
plasma concentration increase of curcumin [2]: 2000%

time of absorption peak after ingestion [3]: approximately 15 min
time of peak after ingestion [3]: approximately 1 hour
Compound: COc1cc(/C=C/C(=O)CC(=O)/C=C/c2ccc(O)c(OC)c2)ccc1O [curcumin alone, curcumin]
AUC [4]: 312 ng·h/mL
Cmax [4]: 90.3 ng/mL

type of inhibition of UDP-GDH [5]: mixed type
IC50 ([5]; purified molecule): 2400 nM
Compound: phycocyanin

Compound: phycocyanobilin
type of inhibition of UDP-GDH [5]: directly competitive
IC50 ([5]; purified pigment): 2.7 nM
